Entries after “also recorded” stand apart in the source; their conditions may differ.

Holding throughout (type): cell-based
One data set deals with BIRC6 mRNA. The data set is described as follows: BIRC6 mRNA level by QRT-PCR. The conditions noted are these: AGS; 48 hours after transfection. The procedure: (§1) miR-BART15-3p was transfected to AGS by using lipofectamine-2000. Forty eight hours after the transfection, the cells were harvested and a QRT-PCR and a Western blotting were performed (FIGS. 12A and 12B). The BIRC6 mRNA level was not changed in the AGS to which miR-BART15-3p was transfected, while the protein level was decreased.
(§2) An miR-BART15-3p inhibitor was transfected to AGS-EBV by using lipofectamine-2000. Forty eight hours after the transfection, the cells were harvested and a QRT-PCR and a Western blotting were performed (FIGS. 12C and 12D). The BIRC6 mRNA level was not changed in the AGS-EBV to which an miR-BART15-3p inhibitor was transfected, while the protein level was increased.

The test system of another data set is 3′UTR of TAX1BP1. Description: Dual luciferase reporter assay (psiCHECK) in HEK293T, TAX1BP1 3'UTR. The conditions noted are these: psiCHECK with TAX1BP1 3′UTR, 48 hours after transfection. The source says: (§3) For an miRNA target test, to psiCHECK, which is a luciferase vector (FIG. 9) specially designed for an miRNA target test including a firefly gene and a renilla gene in the same vector, a 3′UTR of the five genes shown in Table 5, which might be targeted by miR-BART15-3p, was individually cloned to prepare a vector for a target test for each of the genes.
(§4) HEK293T was divided into a 96-well plate such that 5×10^3 cells were allocated to each well, and miR-BART15-3p and a vector for a target test were transfected by using lipofectamine2000. Forty eight hours after the transfection, a dual luciferase reporter assay (Virology. 412(2), 392-400 (2011)) was performed to normalize the results with reference to firefly luciferase and observe a variation of the renilla luciferase gene expression. […] The renilla value was not decreased by […] which was formed by mutating a seed part of miR-BART15-3p (FIG. 10).

A further data set has as its system AGS cell strain. The data set is described as follows: Cell growth test (CCK-8 assay) after transfection of BART miRNA mimics. As to conditions: for Relative Cell Growth: relative to scrambled control (=1). In a few lines:
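EBV-negative AGS gastric cells in RPMI1640 with 10% FBS, seeded 1×10^3 cells/well and transfected with synthetic mature BART miRNA mimics (10 nM; dose series 1, 3, 10, 30 nM) via G-fectin. Growth read by CCK-8 after 72 h (or over time), 2 h at 37 °C, absorbance measured.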

The subject of a further data set is 3′UTR of BIRC6. The data set is described as follows: Dual luciferase reporter assay (psiCHECK) in HEK293T, BIRC6 3'UTR. As to conditions: for renilla value: 48 hours.
Excerpt: as §3, §4
BIRC6 3′UTR included two target sites which might be hybridized with miR-BART15-3p. To verify whether these two sites are directly targeted by miR-BART15-3p, a point mutation was performed at a psiC-BIRC6 site which was seed-matched with miR-BART15-3p to prepare psiC-BIRC6m1 and psiC-BIRC6m2. Both of the sites were mutated to prepare psiC-BIRC6m1m2 (FIG. 11A).
HEK293T was divided into a 96-well plate such that 5×10^3 cells were allocated to each well, and miR-BART15-3p and a vector for a target test were transfected by using lipofectamine-2000. Forty eight hours after the transfection, a dual luciferase reporter assay (Virology. 412(2), 392-400 (2011)) was performed to normalize the results with reference to firefly luciferase and observe a variation of the renilla luciferase gene expression. The renilla value was not decreased in psiC-BIRC6m1 and psiC-BIRC6m1m2 by, while the renilla value was decreased in psiC-BIRC6m2 as in the case of psiC-BIRC6.

For another data set, the system named is BIRC6 protein. Description: BIRC6 protein level by Western blotting. As to conditions: AGS; 48 hours after transfection; listed as miR-BART15-3p. As for the experimental part:
as §1, §2

A further data set has as its system TAX1BP1 mRNA. Description: TAX1BP1 mRNA level by QRT-PCR. The conditions noted are these: AGS; after transfection; listed as miR-BART15-3p. The procedure: as §1
Different from BIRC6, the mRNA level of TAX1BP1 was decreased in the AGS to which miR-BART15-3p was transfected (FIG. 12E).

With “BART15-3p: EBV BART miRNA mimic, double stranded RNA; sense SEQ NO: 15, antisense SEQ NO: 16 (sense GUCAGUGGUUUUGUUUCCUUGA; antisense UCAAGGAAACAAAACCACUGAC; chemistry not given here)”, the “BIRC6 mRNA level” value in the data set with BIRC6 mRNA is “not changed”. Also, the “renilla value (renilla luciferase, normalized to firefly)” value in the data set on 3′UTR of TAX1BP1 is “decrease”; in the data set with 3′UTR of BIRC6 (psiCHECK with BIRC6 3′UTR (psiC-BIRC6), 48 hours after transfection, listed as miR-BART15-3p) it was “decreased”. Also, the “cell growth lower than that of a scrambled control” value in the data set on AGS cell strain (3 nM, 72 hours after transfection) is given as 50%. Also, the cell growth result in the data set with AGS cell strain (10 nM, 72 hours after transfection) is “almost no cell growth”; with AGS cell strain (30 nM, 72 hours after transfection) it was “almost no cell growth”. The “Relative Cell Growth” value with AGS cell strain (mimic 10 nM, 72 hours after transfection, n=9) is recorded as 0.5676; with AGS cell strain (mimic 10 nM, 72 hours after transfection, n=9, listed as miR-BART15-3p) it was “inhibited cell growth”. In addition, the “cell growth over time” value in the data set with AGS cell strain (mimic 10 nM, depending on treatment time, listed as miR-BART15-3p) is recorded as “greatly decreased cell growth; also recorded: inhibited cell growth almost entirely”. The renilla value result in the data set on 3′UTR of BIRC6 (psiC-BIRC6m1 (point mutation of site 1)) was “not decreased”; in the data set with 3′UTR of BIRC6 (psiC-BIRC6m1m2 (both sites mutated)), “not decreased”; in the data set on 3′UTR of BIRC6 (psiC-BIRC6m2 (point mutation of site 2)), “decreased”. In addition, the BIRC6 protein level result in the data set with BIRC6 protein is given as “decrease”. Besides, the “mRNA level of TAX1BP1” value with TAX1BP1 mRNA is reported as “decrease”.

For the origin of these results see US9243247B2, “Composition for promoting apoptosis or inhibiting cell growth, comprising epstein-barr virus microrna” (Catholic University Industry Academic Cooperation Foundation, priority 2011, dated 2016).
